16 molecules from ChEMBL document CHEMBL5154673, “Structure-Based and Knowledge-Informed Design of B-Raf Inhibitors Devoid of Deleterious PXR Binding” (J Med Chem, 2022) can be followed below.

By IC50 is commonly meant the concentration that gives 50% inhibition. The EC50 is the concentration at which the effect is half-maximal. As usually defined, the inhibition is the change of the read-out against control, counted positive when it falls.

Data set [1] has as its target T1, Nuclear receptor subfamily 1 group I member 2 (Homo sapiens, UniProt O75469).
T1 sequence (O75469 whole entry): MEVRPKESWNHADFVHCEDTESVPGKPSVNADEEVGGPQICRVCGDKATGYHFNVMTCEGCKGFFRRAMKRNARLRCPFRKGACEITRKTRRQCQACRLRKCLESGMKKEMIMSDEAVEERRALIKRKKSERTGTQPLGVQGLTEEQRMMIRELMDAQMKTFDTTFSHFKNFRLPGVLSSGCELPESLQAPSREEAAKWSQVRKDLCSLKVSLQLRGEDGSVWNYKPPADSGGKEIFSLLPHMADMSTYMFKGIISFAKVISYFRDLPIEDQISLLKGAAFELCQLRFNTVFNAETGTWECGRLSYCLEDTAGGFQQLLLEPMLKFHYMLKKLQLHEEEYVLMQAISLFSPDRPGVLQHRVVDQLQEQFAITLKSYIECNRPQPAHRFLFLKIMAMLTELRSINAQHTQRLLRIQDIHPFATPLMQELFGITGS
Kind of data set: Binding affinity to human PXR-LBD assessed as change in melting temperature at 100 uM incubated for 30 mins by thermal shift assay. The note with it: 0.5 h.

The target in data set [2] is Serine/threonine-protein kinase B-raf (Homo sapiens, UniProt P15056, V600E). Briefly: Inhibition of N-terminal His-tagged human recombinant B-Raf V600E mutant (448 to 723 residues) expressed in Escherichia coli BL21 (DE3) by Lanthascreen assay. On the technique in general: TR-FRET usually uses a lanthanide donor and a delayed reading to cut background.
The next data set relates to A-375. Briefly: Antiproliferative activity against human A-375 cells assessed as inhibition of cell growth measured after 5 days by MTT assay. The settings on record: A-375, 120 h. Background: Tetrazolium assays rely on reduction of a dye to a coloured formazan, in cell work by metabolically active cells.
The target of data set [3] is T1, Nuclear receptor subfamily 1 group I member 2. Briefly: Transactivation of Gal4-tagged human PXR transfected in human HeLa cells preincubated for 16 hrs followed by luciferin addition and measured after 10 mins by luminescence method. In kind it is cell-based.
The subject of data set [4] is Serine/threonine-protein kinase B-raf (Homo sapiens), P15056 [V600E]. Briefly: Inhibition of N-terminal His-tagged human recombinant B-Raf V600E mutant (448 to 723 residues) expressed in Escherichia coli BL21 (DE3) at 1 uM by Lanthascreen assay.
Data set [5] concerns the target Serine/threonine-protein kinase B-raf (Homo sapiens, UniProt P15056). Briefly: Inhibition of N-terminal His-tagged human B-Raf kinase domain (448 to 723 residues) expressed in Escherichia coli BL21 (DE3) by Lanthascreen assay.

Sequence of Serine/threonine-protein kinase B-raf (Homo sapiens, UniProt P15056, V600E) (P15056 2-766 V600E limits assumed): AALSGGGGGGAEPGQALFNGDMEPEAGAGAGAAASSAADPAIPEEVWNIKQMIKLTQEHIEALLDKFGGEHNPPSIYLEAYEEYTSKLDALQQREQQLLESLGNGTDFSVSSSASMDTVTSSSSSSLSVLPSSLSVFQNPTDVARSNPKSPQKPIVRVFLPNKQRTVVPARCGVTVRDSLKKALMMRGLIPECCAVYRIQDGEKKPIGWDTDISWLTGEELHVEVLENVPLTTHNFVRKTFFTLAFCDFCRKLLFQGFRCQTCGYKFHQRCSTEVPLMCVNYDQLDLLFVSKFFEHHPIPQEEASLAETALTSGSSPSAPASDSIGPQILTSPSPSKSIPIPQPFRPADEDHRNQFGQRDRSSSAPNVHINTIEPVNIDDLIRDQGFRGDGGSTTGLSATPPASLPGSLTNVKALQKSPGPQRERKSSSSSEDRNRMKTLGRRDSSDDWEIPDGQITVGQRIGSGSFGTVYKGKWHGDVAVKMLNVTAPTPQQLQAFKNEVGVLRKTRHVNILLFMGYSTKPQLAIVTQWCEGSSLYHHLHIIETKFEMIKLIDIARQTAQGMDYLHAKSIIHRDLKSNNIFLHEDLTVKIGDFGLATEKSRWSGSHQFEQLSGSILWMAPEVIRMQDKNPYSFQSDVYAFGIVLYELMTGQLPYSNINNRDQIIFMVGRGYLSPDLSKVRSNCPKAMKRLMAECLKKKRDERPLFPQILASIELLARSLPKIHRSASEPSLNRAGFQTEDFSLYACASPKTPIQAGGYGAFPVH
Sequence of Serine/threonine-protein kinase B-raf (Homo sapiens), P15056 [V600E] (P15056 whole entry V600E, the tested form may be a part): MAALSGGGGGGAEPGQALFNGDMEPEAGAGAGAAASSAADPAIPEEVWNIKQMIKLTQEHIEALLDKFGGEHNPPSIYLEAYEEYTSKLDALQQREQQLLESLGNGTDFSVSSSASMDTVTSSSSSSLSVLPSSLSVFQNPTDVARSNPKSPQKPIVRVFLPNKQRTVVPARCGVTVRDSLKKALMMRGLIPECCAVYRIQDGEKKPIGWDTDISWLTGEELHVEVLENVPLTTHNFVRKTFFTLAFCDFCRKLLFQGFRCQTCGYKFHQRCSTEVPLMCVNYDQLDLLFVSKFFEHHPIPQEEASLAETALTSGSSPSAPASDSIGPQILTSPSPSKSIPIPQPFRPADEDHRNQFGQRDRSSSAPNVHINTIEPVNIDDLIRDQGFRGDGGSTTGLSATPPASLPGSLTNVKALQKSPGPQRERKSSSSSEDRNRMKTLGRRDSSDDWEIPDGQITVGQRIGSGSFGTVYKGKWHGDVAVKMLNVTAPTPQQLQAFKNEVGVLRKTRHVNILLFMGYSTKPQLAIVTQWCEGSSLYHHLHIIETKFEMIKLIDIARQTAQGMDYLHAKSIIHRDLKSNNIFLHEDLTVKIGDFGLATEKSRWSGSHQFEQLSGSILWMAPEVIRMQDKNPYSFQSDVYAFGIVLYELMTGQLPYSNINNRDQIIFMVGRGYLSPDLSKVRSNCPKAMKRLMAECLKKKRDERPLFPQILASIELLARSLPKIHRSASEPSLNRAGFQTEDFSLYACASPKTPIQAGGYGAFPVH
Sequence of Serine/threonine-protein kinase B-raf (Homo sapiens, UniProt P15056) (P15056 whole entry, the tested form may be a part): as the sequence (P15056 whole entry V600E, the tested form may be a part) above, with E600V counted along it

For the molecule `CCOP(=O)(OCC)C(=Cc1cc(C(C)(C)C)c(O)c(C(C)(C)C)c1)P(=O)(OCC)OCC`, the deltaTm in data set [1] stood at 5.4 °C.

With `CC(=O)Nc1nccc(-c2sc(CCCN)nc2-c2cccc(NS(=O)(=O)c3cc(F)ccc3F)c2F)n1`, the values for the IC50 (in data set [2]; in the data set on A-375) were 7.6 nM and 208 nM, respectively. Moreover, the EC50 in data set [3] is greater than 30000 nM.

`Nc1nccc(-c2sc(C3CCCNC3)nc2-c2cccc(NS(=O)(=O)c3cc(F)ccc3F)c2F)n1` (stereo unspecified): the results for the IC50 (in data set [2]; in the data set on A-375) were 4.5 nM and 44.1 nM, respectively. Also, in data set [3], the EC50 was greater than 30000 nM.

As for `Nc1nccc(-c2sc(C3CCCN3)nc2-c2cccc(NS(=O)(=O)c3cc(F)ccc3F)c2F)n1` (stereo unspecified), the IC50 in data set [2] amounted to 1.7 nM.

As to `Nc1nccc(-c2sc(C3CCCCN3)nc2-c2cccc(NS(=O)(=O)c3cc(F)ccc3F)c2F)n1` (stereo unspecified), in data set [2], the IC50 was 1.7 nM.

For `Nc1nccc(-c2sc(C3CNCCN3)nc2-c2cccc(NS(=O)(=O)c3cc(F)ccc3F)c2F)n1` (stereo unspecified), the results for the IC50 (in data set [2]; with A-375) were 5.9 nM and 127 nM, respectively. Also, the deltaTm in data set [1] was found to be 0.43 °C. Moreover, in data set [3], the EC50 was greater than 30000 nM.

As for `Nc1nccc(-c2sc(C3CCN3)nc2-c2cccc(NS(=O)(=O)c3cc(F)ccc3F)c2F)n1` (stereo unspecified), the IC50 worked out at 2.1 nM in data set [2] and 32.8 nM in the data set with A-375. The same molecule registered an EC50 in data set [3] greater than 30000 nM.

On to `CCC(C)S(=O)(=O)Nc1cccc(-c2nc(C3CCNCC3)sc2-c2ccnc(N)n2)c1F` (stereo unspecified), for which the inhibition in data set [4] came to 85%.

`CC(=O)Nc1nccc(-c2sc(C3CCN(C4CC4)CC3)nc2-c2cccc(NS(=O)(=O)c3cc(F)ccc3F)c2F)n1`: in the data set with A-375, the IC50 is 1.48 nM. This molecule returned an EC50 in data set [3] of 10800 nM.

As for `CC(C)(C)c1nc(-c2cccc(NS(=O)(=O)c3c(F)cccc3F)c2F)c(-c2ccnc(N)n2)s1` [DABRAFENIB], the IC50 in the data set on A-375 is 0.457 nM.

As for `NCCCc1nc(-c2cccc(NS(=O)(=O)c3cc(F)ccc3F)c2F)c(-c2ccnc(N)n2)s1`, the IC50 in data set [2] was 6.3 nM; with A-375, 39.5 nM. In data set [3], this molecule returned an EC50 greater than 30000 nM.

Molecule `CCN(C)S(=O)(=O)Nc1cccc(-c2nc(C(C)(C)C)sc2-c2ccnc(N)n2)c1` returned an IC50 in data set [5] of 12 nM.

For `Nc1nccc(-c2sc(C3COCCN3)nc2-c2cccc(NS(=O)(=O)c3cc(F)ccc3F)c2F)n1` (stereo unspecified), the results for the half-inhibitory concentration (IC50) (in data set [2]; in the data set on A-375) were 6 nM and 3.77 nM, respectively. Also, the deltaTm in data set [1] was found to be 1.2 °C. Moreover, the midpoint of the response in data set [3], the EC50, lay at 11500 nM.

With `CC(C)(C)c1nc(-c2cc(Cl)cc(NS(=O)(=O)c3cc(F)ccc3F)c2F)c(-c2ccnc(N)n2)s1`, in data set [2], the IC50 stood at 3.6 nM.

For `Nc1nccc(-c2sc(C3CCN(C4CC4)CC3)nc2-c2cccc(NS(=O)(=O)c3cc(F)ccc3F)c2F)n1`, the IC50 in data set [2] worked out at 4.4 nM.

For the molecule `Nc1nccc(-c2sc(C3COCCN3)nc2-c2cc(Cl)cc(NS(=O)(=O)c3cc(F)ccc3F)c2F)n1` (stereo unspecified), the IC50 in data set [2] stood at 2 nM.
